pEC50, pIC50, pKi: −log10 of the molar value. Like-named read-outs stand apart in the source and are kept apart here.
Tests used:
[1] = tested on: BaF3 parental cells; assay: In vitro cell proliferation, BaF3 parental line + IL3 (CellTiter-Glo); type: cell-based, murine; settings: read-out: Prolif BaF3 + IL3 (IC50)
[2] = molecular target: PIM1 (Homo sapiens (Human), UniProt P11309); assay: Pim kinase inhibition, PIM1 LC3K (Example 901); type: biochemical
Text: Determination of the Pim kinase activity of a Formula I compound is possible by a number of direct and indirect detection methods.

[3] = tested on: MM1.S (multiple myeloma) cells; assay: In vitro cell proliferation, MM1.S multiple myeloma cells (CellTiter-Glo, ATP); type: cell-based; settings: read-out: Prolif MM1S ATP (EC50)
Summary of the method: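 BaF3 parental cells (medium with 2 ng/mL mIL-3) seeded at 2 k/well and MM1.S at 10 k/well, then exposed to test compound at 37° C, 5% CO2: BaF3 overnight, MM1.S for 72 hours. Viability read by CellTiter-Glo; IC50/EC50 values calculated.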

[4] = tested on: BaF3 PIM1 cells; settings: read-out: Prolif BaF3_PIM1 (IC50), incubated overnight
[5] = tested on: BaF3 PIM1 cells; assay: cells; settings: Mus musculus, BaF3, read-out: Prolif BaF3_PIM1 (IC50), BaF3 PIM1 cells, incubated overnight
[6] = Mus musculus, BaF3, BaF3 parental cells with IL-3, incubated overnight

Sequence of PIM1 (P11309 whole entry): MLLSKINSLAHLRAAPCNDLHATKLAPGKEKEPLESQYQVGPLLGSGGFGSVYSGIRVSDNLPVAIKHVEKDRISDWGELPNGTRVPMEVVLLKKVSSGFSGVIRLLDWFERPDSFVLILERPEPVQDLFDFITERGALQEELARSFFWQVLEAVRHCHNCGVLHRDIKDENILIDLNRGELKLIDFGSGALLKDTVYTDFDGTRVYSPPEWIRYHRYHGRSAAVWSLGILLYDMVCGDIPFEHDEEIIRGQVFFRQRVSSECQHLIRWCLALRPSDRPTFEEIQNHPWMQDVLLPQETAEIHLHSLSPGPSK

pKi [2]	pEC50 ([3]; 72 hours)	pIC50 [4]	pIC50 [5]	pEC50 ([3]; Homo sapiens, MM1.S, 72 h)	SMILES	pIC50 [1, 6]	pIC50 ([1]; BaF3 parental cells with IL-3, incubated overnight)
9.88	6.39	6.55			CCn1ncc(NC(=O)c2nc(-c3c(F)cccc3F)sc2N)c1N1CCC(N)C(OC)CC1 (single isomer, unassigned) [Example 406, 5-amino-N-[5-(4-amino-5-methoxy-azepan-1-yl)-1-ethyl-pyrazol-4-yl]-2-(2,6-difluorophenyl)thiazole-4-carboxamide]	4.92	
9.69	5.46	6.10			CCn1ncc(NC(=O)c2nc(-c3c(F)cccc3F)sc2N)c1N1CCC(N)C(OC)CC1 (single isomer, unassigned) [Example 407, 5-amino-N-[5-(4-amino-5-methoxy-azepan-1-yl)-1-ethyl-pyrazol-4-yl]-2-(2,6-difluorophenyl)thiazole-4-carboxamide]		5.01
10.26			7.35	7.17	[2H]C([2H])([2H])OC1CCN(c2c(NC(=O)c3nc(-c4ccccc4F)sc3N)cnn2C)CCC1N (stereo not shown) [Example 491, 5-amino-N-[5-[4-amino-5-(trideuteriomethoxy)azepan-1-yl]-1-methyl-pyrazol-4-yl]-2-(2-fluorophenyl)thiazole-4-carboxamide]	< 4.60	
10.02			6.21	5.25	Cn1ncc(NC(=O)c2nc(-c3c(F)cccc3F)sc2N)c1N1CCC(N)C2(CCO2)CC1 (stereo not shown) [Example 510, 5-amino-N-[5-(5-amino-1-oxa-8-azaspiro[3.6]decan-8-yl)-1-methyl-pyrazol-4-yl]-2-(2,6-difluorophenyl)thiazole-4-carboxamide]	4.66	

From patent publication US8614206B2 (Genentech, Inc., priority 2011, dated 2013)
